Counter-ions that a name gives are not always drawn. Like-named read-outs stand apart in the source and are kept apart here.
What was measured:
ABCB1 [1] = target: T1, ABCB1 (Homo sapiens, UniProt P08183); experiment: Cell and fluorescent imaging-based ABCB1-mediated efflux assay (IncuCyte FLR) in KB-V1 cells; conditions: for inhibition at 10 µM: human;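 on all read-outs here: ABCB1-overexpressing KB-V1 cells, live-cell fluorescence imaging of retained calcein (from calcein AM) or MitoTracker Green FM, no preincubation with inhibitor, XR9576 as positive control, calcein AM alone as background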
T1 sequence (P08183 whole entry): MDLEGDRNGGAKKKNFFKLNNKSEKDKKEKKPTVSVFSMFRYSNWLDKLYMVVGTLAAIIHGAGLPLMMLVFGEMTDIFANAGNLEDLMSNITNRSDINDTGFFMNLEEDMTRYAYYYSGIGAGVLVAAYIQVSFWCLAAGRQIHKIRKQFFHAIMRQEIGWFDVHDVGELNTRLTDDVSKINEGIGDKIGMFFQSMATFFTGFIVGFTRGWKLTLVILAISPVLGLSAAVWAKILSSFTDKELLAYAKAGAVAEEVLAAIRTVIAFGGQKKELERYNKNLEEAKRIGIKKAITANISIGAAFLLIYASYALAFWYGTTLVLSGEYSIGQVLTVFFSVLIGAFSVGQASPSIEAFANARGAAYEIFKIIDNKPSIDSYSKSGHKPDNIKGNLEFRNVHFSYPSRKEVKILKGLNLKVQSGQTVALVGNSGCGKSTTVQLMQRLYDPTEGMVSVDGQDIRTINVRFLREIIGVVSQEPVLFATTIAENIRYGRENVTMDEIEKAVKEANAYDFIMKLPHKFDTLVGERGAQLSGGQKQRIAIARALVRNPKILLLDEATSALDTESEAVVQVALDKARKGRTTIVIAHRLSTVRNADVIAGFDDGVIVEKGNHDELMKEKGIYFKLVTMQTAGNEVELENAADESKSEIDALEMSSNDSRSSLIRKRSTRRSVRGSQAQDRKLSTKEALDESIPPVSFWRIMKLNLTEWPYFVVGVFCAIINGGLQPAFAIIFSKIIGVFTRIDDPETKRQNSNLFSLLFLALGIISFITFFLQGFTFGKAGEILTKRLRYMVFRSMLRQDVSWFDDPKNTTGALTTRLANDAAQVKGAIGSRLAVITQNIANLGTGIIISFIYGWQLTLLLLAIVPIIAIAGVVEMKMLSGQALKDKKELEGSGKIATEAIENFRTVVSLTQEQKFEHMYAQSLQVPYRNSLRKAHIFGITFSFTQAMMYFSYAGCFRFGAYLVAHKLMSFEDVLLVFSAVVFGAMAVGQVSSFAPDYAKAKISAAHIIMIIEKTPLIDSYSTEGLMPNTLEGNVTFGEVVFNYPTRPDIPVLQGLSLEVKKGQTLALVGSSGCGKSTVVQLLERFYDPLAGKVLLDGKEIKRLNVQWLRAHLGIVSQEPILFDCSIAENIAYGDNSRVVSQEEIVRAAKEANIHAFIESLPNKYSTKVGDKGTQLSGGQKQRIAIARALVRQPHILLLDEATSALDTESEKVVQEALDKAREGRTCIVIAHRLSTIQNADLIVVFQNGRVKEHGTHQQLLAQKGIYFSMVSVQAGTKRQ
Method: (§2) The cell- and fluorescent imaging-based ABCB1-mediated efflux assays were carried out using ABCB1-overexpressing KB-V1 cells and calcein AM. Calcein AM was diluted in the culture media and then added directly to the cells grown in 96- or 384-well plates at the indicated final concentrations. Additionally, MitoTracker® Green FM was used as a fluorescent substrate in the ABCB1-mediated efflux assay. […] There was no incubation time after addition of the ABCB1 inhibitors. The only time delay between the addition of the inhibitors/drugs and the addition of calcein AM was the sample handling time. […] All wells contained 0.1% DMSO; except when the drugs were serial-diluted, in which the wells with the highest drug concentration contained 0.1% DMSO and the rest of wells contained diluted DMSO from the same working stock solution. The cell culture vessels were placed in a fluorescent and phase-contrast live cell imaging system, the IncuCyte^TMFLR (Essen BioScience, Ann Arbor, MI), in a 37°C incubator supplemented with 5% CO2. Both fluorescent and phase-contrast images (750×950 µm) were taken by the IncuCyte^TMFLR at the indicated time intervals. The approximate number of cells scanned was 200–600 cells per image. Auto-fluorescence of the compounds was determined by treating the cells with the drug candidates in the absence of calcein AM and fluorescence was measured using the IncuCyte^TMFLR and a fluorescent plate reader (Infinite 200 PRO, Tecan System, Inc., San Jose, CA).
(§3) The IncuCyte^TMFLR was programmed to take 4 images per well of a 96-well plate or a single image per well of a 384-well plate. It takes 27 minutes to scan an entire 96-well plate at 4 images per well and 27 minutes to scan an entire 384-well plate at one image per well, respectively. Because intracellular accumulation of calcein is time sensitive, only 3 to 6 columns of a 96-well plate were used for a single experiment. Three positive control (XR9576) wells and three background (calcein AM only) wells were included in each 96-well plate or in each column in the 384-well plates. All experiments were repeated at least twice unless otherwise indicated.
(§4) The IncuCyte^TMFLR software provides the mean of the total fluorescence intensity (mean fluorescence intensity), obtained by averaging fluorescent intensities from all the pixels in the image(s) from each well. The automatically generated mean fluorescence intensity is not corrected for the background fluorescence, which can often lead to distorted outputs. Additional software, the Object Counting v2.0 Analysis software provided by the IncuCyte^TMFLR, can assist further quantification and analysis of the fluorescent images. Using this software, a segmentation mask was generated to separate fluorescent (foreground) and non-fluorescent (background) objects so that the sum of the fluorescent intensity of the positive cells can be calculated without the interference from the background fluorescence. The Object Summed Intensity per mm^2 from the metrix menu was chosen to indicate the background corrected fluorescent intensity of each well and designated as the object intensity.
(§5) The relative inhibition of each compound on calcein AM efflux was calculated by the following equation: [drawing 1] where X represents the mean fluorescence intensities or the object intensities, and T denotes the test compound. The final results were normalized to either the maximum values of the test compounds in the dose-response experiments or to the values from XR9576 (0.2 µM) treated cells.

ABCB1 [2] = target: T1, ABCB1
Method: as §2, §3, §4, §5

ABCB1 [3] = target: T1, ABCB1; experiment: in vitro
Method: as §2, §3, §4, §5

[4] = Cell viability assay (CCK-8); conditions: human, HCT-15-Pgp cells
Method: HCT-15-Pgp cells were plated and cultured in 96-well plates for 1 or 2 days, until they reached 50–80% confluency. […] Cell viability was examined using the Cell Counting Kit-8 (CCK-8, Dojindo Molecular Technologies, Inc., Rockville, MD); which functions similar to MTT assays by reduction of the tetrazolium salt, WST-8, to yield a yellow-colored and water-soluble formazan dye (measured at 450 nm).

KB-V1 cells = experiment: Cytotoxicity to KB-V1 cells seen in the imaging assay; type: cell-based, human
Text: (§1) Compounds that auto-fluoresced were excluded from further analysis.

ABCB1 [5] = target: T1, ABCB1; experiment: Flow cytometry-based ABCB1-mediated efflux assay in KB-V1 cells; conditions: compound 5 µM, calcein AM 1 µM
Method: (§6) An ABCB1-mediated calcein AM efflux assay was also performed with KB-V1 cells and evaluated by flow cytometry as described previously [32]. KB-V1 cells were detached by brief trypsin treatment, followed by addition of medium containing 10% serum to neutralize the trypsin. The detached cells were collected by centrifugation, aliquoted at 500,000 cells/tube, and incubated with the test compounds at the indicated concentrations and calcein AM (1 µM) or MitoTracker® Green FM for 10 minutes in a 37°C water bath. After incubation, the cells were collected by centrifugation at 800xg for 5 minutes and resuspended in PBS/0.1% BSA. The fluorescent substrates retained in KB-V1 cells were detected by flow cytometry (BD FACSCalibur, BD Biosciences, Franklin Lakes, NJ). The data were analyzed with FlowJo 7.2.2 (Tree Star, Inc., Ashland, OR) and presented as histograms. […] Total number of cells counted per sample was 10,000.

ABCB1 [6] = target: T1, ABCB1; experiment: Photolabeling of ABCB1 with [125I]IAAP; type: binding; set-up: made in house; host or cells: Hifive insect cells (crude / plasma membranes); conditions: compound 20 µM, membranes from Hifive cells overexpressing human ABCB1, autoradiograph
Method: The interaction of selected compounds with ABCB1 was assessed by an in vitro photolabeling assay as previously described [32].

ABCB1 [7] = target: T1, ABCB1; remark: listed apart in the source
Method: as §6

KB-3-1 cells = experiment: Cell imaging-based calcein accumulation in parental KB-3-1 cells; set-up: species or system human; conditions: 1 µM calcein AM, 1 hour, mean fluorescence intensities
Method: ABCB1-overexpressing KB-V1 cells, previously selected and maintained with vinblastine (1 µg/ml), and the parental line, KB-3-1 cells, were cultured in DMEM supplemented with 10% FBS [26], [27], [28]. Vinblastine was removed from the KB-V1 cell culture medium 2 to 3 days before each experiment. For the efflux assay, the cells were plated at either 20,000 cells per well in 96-well (100 µl/well) or 2,500 cells per well in 384-well (40 µl/well) flat, clear bottom, white or black-walled polystyrene tissue culture plates (uncoated) (Corning Life Sciences, Tewksbury, MA) and incubated at 37°C. After the cell confluence reached 30–80% (1 to 3 days in culture), the cell and fluorescent imaging-based efflux assays were performed. The ABCB1 overexpressing HCT-15-Pgp cells, used for the cytotoxicity assays, were also cultured in DMEM supplemented with 10% FBS [29]. All cell lines were gifts from Dr. Michael M. Gottesman (NCI, Bethesda, MD).
as §1

[8] = ABCB1-overexpressing KB-V1 cells, probe calcein AM (1 µM)

## COc1cc2nccc(Oc3ccc(NC(=O)Nc4cc(C)on4)c(Cl)c3)c2cc1OC [AV-951 (Tivozanib), Tivozanib]
ABCB1 [1]; [8]
  inhibition at 10 µM: ≥ 50%

## CN1CCN(CCOc2cc(OC3CCOCC3)c3c(Nc4c(Cl)ccc5c4OCO5)ncnc3c2)CC1 [AZD0530 (Saracatinib), Saracatinib]
ABCB1 [1]; [8]
  inhibition at 10 µM: ≥ 50%

## Cn1c(=O)n(-c2ccc(C(C)(C)C#N)cc2)c2c3cc(-c4cnc5ccccc5c4)ccc3ncc21 [BEZ235]
ABCB1 [2]
  Inhibition of ABCB1-mediated calcein AM efflux in dose-response experiment: dose-dependent inhibition
ABCB1 [1]
  IC50: 20.1 µM
ABCB1 [3]
  inhibition at 10 µM: ≥ 50%

## CC[C@@H]1C(=O)N(C)c2cnc(Nc3ccc(C(=O)N[C@H]4CC[C@H](N5CCN(CC6CC6)CC5)CC4)cc3OC)nc2N1C(C)C [BI6727]
ABCB1 [1]; [8]
  inhibition at 10 µM: ≥ 50%

## CC[C@@H]1C(=O)N(C)c2cnc(Nc3ccc(C(=O)NC4CCN(C)CC4)cc3OC)nc2N1C1CCCC1 [BI 2536]
[4]
  IC50 at 48 h: 1.28 µM

## CN(C)C/C=C/C(=O)Nc1cc2c(Nc3ccc(F)c(Cl)c3)ncnc2cc1O[C@H]1CCOC1 [BIBW2992 (Tovok)]
ABCB1 [1]
  inhibition at 10 µM: ≥ 50%

## COc1cc(Nc2c(C#N)cnc3cc(OCCCN4CCN(C)CC4)c(OC)cc23)c(Cl)cc1Cl [Bosutinib (SKI-606), Bosutinib]
ABCB1 [3]
  inhibition at 10 µM: ≥ 50%

## C=CC(=O)Nc1cc2c(Nc3ccc(F)c(Cl)c3)ncnc2cc1OCCCN1CCOCC1 [CI-1033 (Canertinib), Canertinib]
ABCB1 [3]
  inhibition at 10 µM: ≥ 50%

## COc1cc2c(Oc3ccc4[nH]c(C)cc4c3F)ncnc2cc1OCCCN1CCCC1 [Cediranib (AZD2171), Cediranib]
ABCB1 [3]
  inhibition at 10 µM: ≥ 50%

## CC1(COc2ccc3c(c2)ncn3-c2ccc3cccc(N4CCC(N)CC4)c3n2)COC1 [Crenolanib (CP-868596), Crenolanib]
ABCB1 [1]; [8]
  inhibition at 10 µM: ≥ 50%

## C[S+](C)[O-] [DMSO, dimethyl sulfoxide]
KB-V1 cells; 1 µM calcein AM (data not shown)
  Concentration toxic to KB-V1 cells: ≥ 0.5 % (v/v)

## CO[C@H]1C[C@@H]2CC[C@@H](C)[C@@](O)(O2)C(=O)C(=O)N2CCCC[C@H]2C(=O)O[C@H]([C@H](C)C[C@@H]2CC[C@@H](OP(C)(C)=O)[C@H](OC)C2)CC(=O)[C@H](C)/C=C(\C)[C@@H](O)[C@@H](OC)C(=O)[C@H](C)C[C@H](C)/C=C/C=C/C=C/1C [Deforolimus (MK-8669), Deforolimus]
ABCB1 [3]
  inhibition at 10 µM: ≥ 50%

## CO[C@H]1C[C@@H]2CC[C@@H](C)[C@@](O)(O2)C(=O)C(=O)N2CCCC[C@H]2C(=O)O[C@H]([C@H](C)C[C@@H]2CC[C@@H](OCCO)[C@H](OC)C2)CC(=O)[C@H](C)/C=C(\C)[C@@H](O)[C@@H](OC)C(=O)[C@H](C)C[C@H](C)/C=C/C=C/C=C/1C [Everolimus (RAD001), Everolimus]
ABCB1 [1]; [8]
  inhibition at 10 µM: ≥ 50%

## COc1ccc2c3c([nH]c2c1)[C@H](C=C(C)C)N1C(=O)[C@@H]2CCCN2C(=O)[C@@H]1C3 [FTC, fumitremorgin C]
ABCB1 [5]
  Inhibition of ABCB1-mediated calcein AM efflux, flow cytometry: neither ABCG2 specific inhibitor FTC nor ABCC1 specific inhibitor MK-571 interfered

## C[C@@H](Oc1cc(-n2cnc3ccc(CN4CCN(C)CC4)cc32)sc1C(N)=O)c1ccccc1C(F)(F)F [GSK461364]
ABCB1 [1]; [8]
  inhibition at 10 µM: ≥ 50%

## COc1cc2ncnc(Nc3ccc(F)c(Cl)c3)c2cc1OCCCN1CCOCC1 [Gefitinib (Iressa), Gefitinib]
ABCB1 [3]
  inhibition at 10 µM: ≥ 50%

## O=C(c1ccc(Nc2nccc(-c3cc4ccccc4s3)n2)cc1)N1CCC(N2CCCC2)CC1 [IKK 16]
ABCB1 [2]
  IC50, inhibition of ABCB1-mediated calcein AM efflux: cannot be calculated from the data
  Inhibition of ABCB1-mediated calcein AM efflux in dose-response experiment: dose-dependent inhibition
ABCB1 [5]
  Inhibition of ABCB1-mediated calcein AM efflux, flow cytometry: inhibited
ABCB1 [6]
  Competition with [125I]IAAP for direct binding to ABCB1: successfully competed

## Cc1ccc(NC(=O)c2ccc(CN3CCN(C)CC3)cc2)cc1Nc1nccc(-c2cccnc2)n1 [Imatinib (STI571), Imatinib]
ABCB1 [3]
  inhibition at 10 µM: ≥ 50%

## Cc1cnc(NC(=O)Nc2cc(Br)c(C)cc2OC[C@@H]2CNCCO2)cn1 [LY2603618]
ABCB1 [3]
  inhibition at 10 µM: ≥ 50%

## CS(=O)(=O)CCNCc1ccc(-c2ccc3ncnc(Nc4ccc(OCc5cccc(F)c5)c(Cl)c4)c3c2)o1 [Lapatinib Ditosylate]
ABCB1 [1]; [8]
  inhibition at 10 µM: ≥ 50%

## CN(C)C(=O)CCSC(SCCC(=O)O)c1cccc(/C=C/c2ccc3ccc(Cl)cc3n2)c1 (stereo not shown) [MK-571]
ABCB1 [5]
  Inhibition of ABCB1-mediated calcein AM efflux, flow cytometry: neither ABCG2 specific inhibitor FTC nor ABCC1 specific inhibitor MK-571 interfered

## S=C(NCc1ccc2c(c1)OCO2)N1CCN(c2ncnc3c2oc2ccccc23)CC1 [MP-470 (Amuvatinib), Amuvatinib]
ABCB1 [1]; [8]
  inhibition at 10 µM: ≥ 50%

## Cc1ccc(NC(=O)c2ccc(CN3CCN(C)CC3)cc2)cc1Nc1nc(-c2cccnc2)cs1 [Masitinib (AB1010), Masitinib]
ABCB1 [1]; [8]
  inhibition at 10 µM: ≥ 50%

## Cc1cn(-c2cc(NC(=O)c3ccc(C)c(Nc4nccc(-c5cccnc5)n4)c3)cc(C(F)(F)F)c2)cn1 [Nilotinib]
ABCB1 [3]
  inhibition at 10 µM: ≥ 50%

## CCOc1cc2ncc(C#N)c(Nc3ccc(F)c(Cl)c3)c2cc1NC(=O)/C=C/CN(C)C [Pelitinib]
ABCB1 [1]; [8]
  inhibition at 10 µM: ≥ 50%

## CO[C@H]1C[C@@H]2CC[C@@H](C)[C@@](O)(O2)C(=O)C(=O)N2CCCC[C@H]2C(=O)O[C@H]([C@H](C)C[C@@H]2CC[C@@H](O)[C@H](OC)C2)CC(=O)[C@H](C)/C=C(\C)[C@@H](O)[C@@H](OC)C(=O)[C@H](C)C[C@H](C)/C=C/C=C/C=C/1C [Rapamycin (Sirolimus), Rapamycin]
ABCB1 [3]
  inhibition at 10 µM: ≥ 50%

## O=C(Nc1cccc(Cl)c1)Nc1ncc(CCNc2ncnc3ccsc23)s1 [SNS-314 Mesylate]
ABCB1 [3]
  inhibition at 10 µM: ≥ 50%

## CO[C@H]1C[C@@H]2CC[C@@H](C)[C@@](O)(O2)C(=O)C(=O)N2CCCC[C@H]2C(=O)O[C@H]([C@H](C)C[C@@H]2CC[C@@H](OC(=O)C(C)(CO)CO)[C@H](OC)C2)CC(=O)[C@H](C)/C=C(\C)[C@@H](O)[C@@H](OC)C(=O)[C@H](C)C[C@H](C)/C=C/C=C/C=C/1C [Temsirolimus]
ABCB1 [3]
  inhibition at 10 µM: ≥ 50%

## C=CC(=O)Nc1cccc(Oc2nc(Nc3ccc(N4CCN(C)CC4)cc3OC)ncc2Cl)c1 [WZ4002]
ABCB1 [3]
  inhibition at 10 µM: ≥ 50%

## COc1cc2c(cc1OC)CN(CCc1ccc(NC(=O)c3cc(OC)c(OC)cc3NC(=O)c3cnc4ccccc4c3)cc1)CC2 [XR9576, tariquidar]
ABCB1 [7]
  Inhibition of MitoTracker Green FM efflux, flow cytometry: blocked
ABCB1 [2]
  Inhibition of ABCB1-mediated calcein AM efflux in dose-response experiment: dose-dependent inhibition
ABCB1 [2]; human
  Inhibition of MitoTracker Green FM efflux, cell imaging: inhibition on ABCB1-mediated efflux was detected
KB-V1 cells; imaging assay (not shown)
  Concentration cytotoxic to cells: > 1000 nM
KB-3-1 cells
  Effect on fluorescent calcein accumulation: independent
ABCB1 [1]
  IC50: 0.00728 µM

## CCC/C=C/C=C/C(=O)O[C@H]1/C(=C/C(=O)OC)C[C@H]2C[C@H]([C@@H](C)O)OC(=O)C[C@H](O)C[C@@H]3C[C@H](OC(C)=O)C(C)(C)[C@](O)(C[C@@H]4C/C(=C/C(=O)OC)C[C@H](/C=C/C(C)(C)[C@]1(O)O2)O4)O3 [bryostatin-1, Bryostatin-1]
ABCB1 [5]
  Inhibition of ABCB1-mediated calcein AM efflux, flow cytometry: failed to inhibit
ABCB1 [1]; KB-V1 cells, 96-well plates, 1 µM calcein AM
  Inhibition of ABCB1-mediated calcein AM efflux in dose-response experiment: failed to inhibit

## Cc1ccc(C(=O)N(CCCN)[C@@H](c2nc3cc(Cl)ccc3c(=O)n2Cc2ccccc2)C(C)C)cc1 [ispinesib]
ABCB1 [7]
  Inhibition of ABCB1-mediated calcein AM efflux, flow cytometry: inhibited
ABCB1 [2]
  Inhibition of ABCB1-mediated calcein AM efflux in dose-response experiment: dose-dependent inhibition
ABCB1 [1]
  IC50: 5.04 µM
ABCB1 [6]
  Competition with [125I]IAAP for direct binding to ABCB1: marginal effect
